{"source": "patent US6193967A", "about": "“Bispecific reagents for redirected targeting of human lipoproteins” (priority 1997, dated 2001)", "tested_on": "monocytes", "assay": "Uptake of bispecific LDL*-IC by monocytes (flow cytometry of cell-associated fluorescence)", "format": "cell-based, human", "conditions": "monocytes at 37° C., bispecific LDL*-IC (anti-FcγRII×anti-LDL plus BODIPY-LDL); antioxidant concentration not given", "description": "All experiments were done under sterile conditions. For each experiment, bispecific LDL immune complexes (bispecific LDL*-IC) were freshly prepared by combining 4 μg/ml of LDL* with heteroantibodies in eppendorf tubes in monocyte culture medium (without serum or unlabeled LDL unless otherwise indicated), and incubating for one hour at room temperature, prior to adding cells in RPMI 1640 plus 10% FCS. That concentration of LDL* was chosen because it gave a satisfactory signal to noise ratio. In all experiments, a control consisting of LDL* alone was set up by substituting medium for heteroantibody. The final volume of bispecific complexes prior to addition of cells was […]; […] of cells at 1×10^7 /ml were added for a final volume of […]. The tubes were then mixed by gentle pipetting, and incubated at 4° C. or 37° C. as indicated. Final mAb or heteroantibody concentrations are shown in each figure; the final concentration of LDL* in all preparations was 1.33 μg/ml unless otherwise indicated. […]\nIn all experiments, cells were removed after various times of incubation and washed twice with one ml of PBS at room temperature. […] For cytofluorogaphic analysis, samples were analyzed for green fluorescence on a FACScan (Becton-Dickinson). The excitation wavelength was 488 nm and emission at 515 nm was analyzed. […]"}
{"smiles": "Cc1cc(C(C)(C)C)c(O)c(C(C)(C)C)c1", "note": "[butylated hydroxytoluene]", "values": [{"measurement": "effect on the response to bispecific LDL*-IC (uptake by monocytes)", "result": "had no effect"}]}
